Results on one compound are retold here after US5977104A, “Use of NK-1 receptor antagonists for treating bipolar disorders” (Merck Sharp & Dohme Ltd., priority 1996, dated 1999).

Where two headings read alike, the source gives them in different places.

For test [1], the system named is foot tapping in gerbils induced by NK-1 receptor agonist GR73632. Put plainly: Gerbil foot-tapping (Assay 2), induced by central infusion of NK-1 receptor agonist GR73632. Format: in vivo, Mongolian gerbil. The conditions noted are these: Meriones unguiculatus, iv. The source says:
CNS-penetrant NK-1 receptor antagonists for use in the present invention can be identified by their ability to inhibit foot tapping in gerbils induced by anxiogenic agents (such as pentagastrin) or central infusion of NK-1 receptor agonists such as GR73632, or caused by aversive stimulation such as foot shock or single housing, based on the method of Rupniak & Williams, Eur. J. Pharmacol., 1994, 265, 179.
Male or female Mongolian gerbils (35-70 g) are anaesthetised by inhalation of an isoflurane/oxygen mixture to permit exposure of the jugular vein in order to permit administration of test compounds or vehicle in an injection volume of 5ml/kg i.v. Alternatively, test compounds may be administered orally or by subcutaneous or intraperitoneal routes. A skin incision is then made in the midline of the scalp to expose the skull. […]

Test [2] concerns cisplatin-induced emesis in ferrets. Put plainly: Ferret emesis (Assay 3), cisplatin-induced. Format: in vivo. The settings on record: Mustela putorius, po, 4 h; p.o., cisplatin 10 mg/kg i.v. at 60 minutes following dosing; read-out: ferret emesis: ID90. Here is the method: Ten minutes later they are fed with approximately 100 g of tinned cat food. At 60 minutes following oral dosing, cisplatin (10 mg/kg) is given i.v. via a jugular vein catheter inserted under a brief period of halothane anaesthesia. The catheter is then removed, the jugular vein ligated and the skin incision closed. The ferrets recover rapidly from the anaesthetic and are mobile within 10-20 minutes. The animals are observed continuously during recovery from the anaesthetic and for 4 hours following the cisplatin injection, after which time the animals are killed humanely. The numbers of retches and vomits occurring during the 4 hours after cisplatin administration are recorded by trained observers.

The test system of test [3] is separation-induced vocalisations by guinea-pig pups. Put plainly: Separation-induced vocalisation in guinea-pig pups (Assay 4). The conditions noted are these: Cavia porcellus, po, 4 hr. pretreatment; read-out: guinea-pig vocalisation (4 hr. pretreatment): ID50. Format: in vivo. As to the method:
Male and female guinea-pigs pups are housed in family groups with their mothers and littermates throughout the study. Experiments are commenced after weaning when the pups are 2 weeks old. Before entering an experiment, the pups are screened to ensure that a vigorous vocalisation response is reproducibly elicited following maternal separation. The pups are placed individually in an observation cage (55 cm×39 cm×19 cm) in a room physically isolated from the home cage for 15 minutes and the duration of vocalisation during this baseline period is recorded. […] On test days each pup receives an oral dose or an s.c. or i.p. injection of test compound or vehicle and is then immediately returned to the home cage with its mother and siblings for 30 to 60 minutes (or for up to 4 hours following an oral dose, dependent upon the oral pharmacokinetics of the test compound) before social isolation for 15 minutes as described above. […] Between 6 and 8 animals receive each test compound at each dose tested.

Consider `OC[C@@H](O[C@H]1OCCN(Cc2nc[nH]n2)[C@H]1c1ccc(F)cc1)c1cc(C(F)(F)F)cc(C(F)(F)F)c1` [2-(R)-(1-(S)-(3,5-bis(trifluoromethyl)phenyl)-2-hydroxyethoxy)-3-(S) -(4-fluorophenyl)-4-(1,2,4-triazol-3-yl)methylmorpholine], for which the ED50 is 0.38 mg/kg in test [1] (5 min, i.v., immediately prior to GR73632 challenge (5 mins.), read-out: gerbil foot-tapping (5 mins.): ID50); 2.2 mg/kg in test [1] (24 hours prior to central NK1 agonist challenge, read-out: gerbil foot-tapping (24 hrs.): ID50); 0.91 mg/kg in test [3]. In addition, the ED90 in test [2] is 1 mg/kg.
